From PubChem BioAssay (NCI)
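Five concentrations, 48 hours, 96-well plates. Definition used: TGI = concentration required for complete inhibition of growth.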

Columns and labels:
Assay in all cases: NCI-60 cell line screen, 48 h
HCC-2998 colon = system: HCC-2998 colon
HCT-116 colon = system: HCT-116 colon
HOP-62 NSCLC = system: HOP-62 NSCLC
K-562 leukemia = system: K-562 leukemia
KM12 colon = system: KM12 colon
M14 melanoma = system: M14 melanoma
MALME-3M melanoma = system: MALME-3M melanoma
MDA-MB-435 = system: MDA-MB-435
NCI-H460 lung = system: NCI-H460 lung
OVCAR-3 ovarian = system: OVCAR-3 ovarian
OVCAR-4 ovarian = system: OVCAR-4 ovarian
RXF 393 renal = system: RXF 393 renal
SF-268 CNS = system: SF-268 CNS
SF-295 CNS = system: SF-295 CNS
SF-539 CNS = system: SF-539 CNS
SK-MEL-5 melanoma = system: SK-MEL-5 melanoma
SNB-19 CNS = system: SNB-19 CNS
TK-10 renal = system: TK-10 renal
UO-31 renal = system: UO-31 renal

SMILES	TGI (HCC-2998 colon)	TGI (HCT-116 colon)	TGI (HOP-62 NSCLC)	TGI (K-562 leukemia)	TGI (KM12 colon)	TGI (M14 melanoma)	TGI (MALME-3M melanoma)	TGI (MDA-MB-435)	TGI (NCI-H460 lung)	TGI (OVCAR-3 ovarian)	TGI (OVCAR-4 ovarian)	TGI (RXF 393 renal)	TGI (SF-268 CNS)	TGI (SF-295 CNS)	TGI (SF-539 CNS)	TGI (SK-MEL-5 melanoma)	TGI (SNB-19 CNS)	TGI (TK-10 renal)	TGI (UO-31 renal)
CCOC(CN(C)C(=O)Nc1ccc(Cl)c(Cl)c1)OCC	> 10 µM	> 10 µM	> 10 µM	> 10 µM	> 10 µM	> 10 µM	> 10 µM	> 10 µM	> 10 µM	> 10 µM	> 10 µM	> 10 µM	> 10 µM	> 10 µM	> 10 µM	> 10 µM	> 10 µM	> 10 µM	> 10 µM
Clc1cc2nc(C3CCCCO3)[nH]c2cc1Cl (centres undefined)	96.9 µM	> 100 µM	> 100 µM	> 100 µM	> 56.9 µM	> 100 µM	> 100 µM	> 44.6 µM	> 100 µM	23.9 µM	> 100 µM	> 52.6 µM	> 100 µM	> 100 µM	97 µM	> 100 µM	> 100 µM	> 100 µM	> 53.3 µM
Cc1c2oc3c(C)cnc(C(=O)NC4C(=O)NC(C(C)C)C(=O)N5CCCC5C(=O)N(C)CC(=O)N(C)C(C(C)C)C(=O)OC4C)c3nc-2c(C(=O)NC2C(=O)NC(C(C)C)C(=O)N3CCCC3C(=O)N(C)CC(=O)N(C)C(C(C)C)C(=O)OC2C)c(N)c1=O (centres undefined)	15.7 µM	> 35.5 µM	> 57.7 µM	2.36 µM	61.1 µM	16.8 µM	16.6 µM	16.7 µM	> 24.6 µM	> 58.2 µM	73.5 µM	18.8 µM	24.4 µM	39.9 µM	17.7 µM	21.6 µM	> 68.4 µM	> 75 µM	51 µM
O=C(O)C1CC(C2CCCCN2)CN2CCCCC12 (centres undefined)	> 100 µM	> 100 µM	> 100 µM	> 100 µM	> 100 µM	> 100 µM	> 100 µM	> 100 µM	> 100 µM	> 100 µM	> 100 µM	> 100 µM	> 100 µM	> 100 µM	> 100 µM	> 100 µM	> 100 µM	> 100 µM	> 100 µM
Cc1nn(C(=O)c2ccc(Cl)cc2)c2c1C(c1ccccc1O)SC(N)=N2 (centres undefined)	> 10 µM	> 10 µM	> 10 µM	> 10 µM	> 10 µM	> 10 µM	> 10 µM	> 10 µM	> 10 µM	> 10 µM	> 10 µM	> 10 µM	> 10 µM	> 10 µM	> 10 µM	> 10 µM	> 10 µM	> 10 µM	
CCCCCCc1cc2cc(C(=O)NCc3ccccc3)c(=N)oc2cc1O	> 100 µM	> 100 µM	> 100 µM	> 100 µM	> 100 µM	> 100 µM	> 100 µM	> 100 µM	> 100 µM	> 100 µM	> 100 µM	> 100 µM	> 100 µM		> 100 µM	> 100 µM	> 100 µM		
CC(=O)c1cc2c(s1)C(=O)c1ccsc1C2=O	3.17 µM	1.59 µM	0.916 µM	3.57 µM	3.11 µM	1.2 µM	0.332 µM	0.226 µM		0.729 µM	2.56 µM	0.683 µM	1.01 µM	0.307 µM	0.649 µM	0.262 µM	1.02 µM	3.69 µM	0.597 µM
O=c1sc(Nc2ccc3ccccc3c2Cl)nc2ccccc12	> 100 µM	> 100 µM	> 100 µM	> 100 µM	> 100 µM		> 100 µM	> 100 µM	> 100 µM	> 100 µM	> 100 µM	> 100 µM	> 100 µM	> 100 µM	> 100 µM	> 100 µM	> 100 µM	> 100 µM	> 100 µM
COc1ccc2nc3c(C)cc4ccccc4n3c2c1	> 100 µM	> 100 µM	> 100 µM	> 100 µM	> 100 µM	> 100 µM	> 100 µM	> 100 µM	> 100 µM	> 100 µM		> 100 µM	> 100 µM	> 100 µM	> 100 µM	> 100 µM	> 100 µM	> 100 µM	> 100 µM
CC1(c2nc3ccccc3[nH]2)CCC(C#N)C(C)(C)O1 (centres undefined)	> 100 µM	> 100 µM	> 100 µM	> 100 µM	> 100 µM	> 100 µM	> 100 µM	> 100 µM		> 100 µM	> 100 µM	> 100 µM	> 100 µM	> 100 µM	> 100 µM	> 100 µM	> 100 µM	> 100 µM	> 100 µM
COc1ccc(C(OC(=O)[C@H](O[Si](C)(C)C(C)(C)C)[C@@H](NC(=O)c2ccccc2)c2ccccc2)c2ccc(OC)cc2)cc1	> 100 µM	> 100 µM	> 100 µM	> 100 µM	> 100 µM		> 100 µM	> 100 µM	> 100 µM	> 100 µM	> 100 µM	> 100 µM	> 100 µM	> 100 µM	> 100 µM	> 100 µM	> 100 µM	> 100 µM	> 100 µM
O=C1NC(=S)N/C1=C\c1ccc(Cl)cc1	> 100 µM	> 100 µM	> 100 µM		> 100 µM	> 100 µM	> 100 µM	> 100 µM		> 100 µM	> 100 µM	> 100 µM	> 100 µM	> 100 µM	> 100 µM	> 100 µM	> 100 µM	> 100 µM	> 100 µM
COC(=O)CN=C1NC(=S)N(Cc2ccc(OC)cc2)C12CCCC2	> 100 µM	> 100 µM	> 100 µM	> 100 µM	> 100 µM	> 100 µM	> 100 µM	> 100 µM	> 100 µM	> 100 µM	> 100 µM	> 100 µM	> 100 µM	> 100 µM	> 100 µM		> 100 µM		> 100 µM
